{
  "source": "ChEMBL document CHEMBL4725331",
  "about": "“An investigative study of antitumor properties of a novel thiazolo[4,5-d]pyrimidine small molecule revealing superior antitumor activity with CDK1 selectivity and potent pro-apoptotic properties” (Bioorg Med Chem, 2020)",
  "key": {"[1]": {"tested_on": "HCT-116", "assay": "Cytotoxicity against human HCT-116 cells assessed as reduction in cell viability after 48 hrs by MTT assay", "format": "functional, cell-based", "settings": "HCT-116, 48 h"}, "[2]": {"tested_on": "WI-38", "assay": "Cytotoxicity against human WI-38 cells assessed as reduction in cell viability after 48 hrs by MTT assay", "format": "cell-based", "settings": "WI-38, 48 h"}, "[3]": {"tested_on": "HOP-92", "assay": "Antiproliferative activity against human HOP-92 cells assessed as inhibition of cell growth measured after 48 hrs by SRB assay", "format": "functional"}, "[4]": {"tested_on": "IGROV-1", "assay": "Antiproliferative activity against human IGROV-1 cells assessed as inhibition of cell growth measured after 48 hrs by SRB assay", "format": "functional"}},
  "data": [
    {"smiles": "CC[C@H](CO)Nc1nc(NCc2ccccc2)c2ncn(C(C)C)c2n1", "note": "[SELICICLIB]", "values": [
      {"measurement": "IC50", "setting": "[1]", "result": 15.5, "unit": "µM"},
      {"measurement": "IC50", "setting": "[2]", "result": 24.1, "unit": "µM"}
    ]},
    {"smiles": "COc1ccc(-n2c(=S)sc3c(=O)[nH]c(C)nc32)c(OC)c1", "values": [
      {"measurement": "GI50", "setting": "[3]", "result": "< 0.01", "unit": "µM"},
      {"measurement": "GI50", "setting": "[4]", "result": 0.18, "unit": "µM"}
    ]}
  ]
}
